# Results as given in ChEMBL document CHEMBL1201862, “PubChem BioAssay data set” (2004).
# Active and inactive are the calls of the source.
# Experiments:
# [1] = molecular target: Nonstructural protein 1 (Influenza A virus, UniProt Q194T2); assay type: functional, Influenza A virus (A/California/07/2009(H1N1))
# [2] = bead-based luminescence quenchers, dual-tagged ARNT – biochemical, AlphaScreen, cherry-pick, artefact control for ARNT-TACC3 interaction inhibitor project, dose response (AID 651705); assay type: functional;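 further: AlphaScreen bead proximity signal that flags compounds interfering with the detection technology; potency reflects signal decrease which marks the compound as an assay artifact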
# [3] = molecular target: T1, Heat shock factor protein 1 (Mus musculus, UniProt P38532); assay: decrease of HSF1-responsive luciferase luminescence – cell-based, NIH3T3, dose retest, confirmation (AID 2382); assay type: functional;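 further: NIH3T3 fibroblasts with HSF1-driven luciferase reporter stressed by proteasome inhibitor MG132; luminescence from HSF1-driven luciferase expression after 8 hours of MG132 stress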
# T1 sequence (P38532 whole entry): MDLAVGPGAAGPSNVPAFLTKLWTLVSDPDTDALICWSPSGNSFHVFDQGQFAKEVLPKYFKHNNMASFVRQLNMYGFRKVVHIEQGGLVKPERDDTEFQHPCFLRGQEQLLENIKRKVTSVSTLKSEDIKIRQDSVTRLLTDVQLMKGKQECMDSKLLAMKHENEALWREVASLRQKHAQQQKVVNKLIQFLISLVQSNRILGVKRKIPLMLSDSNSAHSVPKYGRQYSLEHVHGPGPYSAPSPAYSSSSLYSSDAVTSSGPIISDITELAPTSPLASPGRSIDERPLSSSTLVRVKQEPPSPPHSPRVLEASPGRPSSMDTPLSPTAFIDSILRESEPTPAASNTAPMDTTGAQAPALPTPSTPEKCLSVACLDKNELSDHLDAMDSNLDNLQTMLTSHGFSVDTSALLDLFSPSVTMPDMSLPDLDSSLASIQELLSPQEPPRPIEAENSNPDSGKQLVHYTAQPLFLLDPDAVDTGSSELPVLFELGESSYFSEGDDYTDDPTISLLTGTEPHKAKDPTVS
# [4] = molecular target: Peroxisome proliferator-activated receptor gamma/Nuclear receptor corepressor 2 (Homo sapiens, UniProt P37231+Q9Y618); assay type: functional
# [5] = molecular target: Photoreceptor-specific nuclear receptor (Homo sapiens, UniProt Q9Y5X4); assay type: functional;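 further: potency for compounds that break the NR2E3 corepressor complex and count as activators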
# [6] = molecular target: Major prion protein (Homo sapiens, UniProt P04156); assay type: functional, cell-based
# [7] = molecular target: Beta-galactosidase (Escherichia coli, UniProt Q8VNN2); assay: Dose response counterscreen for EBI2 assay utilizing the enzyme, b-galactosidase.; assay type: functional
# [8] = potency of ADAM10 substrate cleavage blockers – biochemical, QFRET, dose response (AID 743254);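 further: ADAM10 enzyme with the DM2 quenched FRET peptide as substrate; EDANS fluorescence gain as the protease cuts the substrate; inhibitor potency against ADAM10 proteolytic activity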
# [9] = molecular target: T2, Sentrin-specific protease 1 (Homo sapiens, UniProt Q9P0U3); assay: Dose response confirmation of small molecule inhibitors of the catalytic domain of the SUMO protease, SENP1 in a FRET assay.; assay type: functional; conditions: read-out: IC50_Mean
# T2 sequence (Q9P0U3 whole entry): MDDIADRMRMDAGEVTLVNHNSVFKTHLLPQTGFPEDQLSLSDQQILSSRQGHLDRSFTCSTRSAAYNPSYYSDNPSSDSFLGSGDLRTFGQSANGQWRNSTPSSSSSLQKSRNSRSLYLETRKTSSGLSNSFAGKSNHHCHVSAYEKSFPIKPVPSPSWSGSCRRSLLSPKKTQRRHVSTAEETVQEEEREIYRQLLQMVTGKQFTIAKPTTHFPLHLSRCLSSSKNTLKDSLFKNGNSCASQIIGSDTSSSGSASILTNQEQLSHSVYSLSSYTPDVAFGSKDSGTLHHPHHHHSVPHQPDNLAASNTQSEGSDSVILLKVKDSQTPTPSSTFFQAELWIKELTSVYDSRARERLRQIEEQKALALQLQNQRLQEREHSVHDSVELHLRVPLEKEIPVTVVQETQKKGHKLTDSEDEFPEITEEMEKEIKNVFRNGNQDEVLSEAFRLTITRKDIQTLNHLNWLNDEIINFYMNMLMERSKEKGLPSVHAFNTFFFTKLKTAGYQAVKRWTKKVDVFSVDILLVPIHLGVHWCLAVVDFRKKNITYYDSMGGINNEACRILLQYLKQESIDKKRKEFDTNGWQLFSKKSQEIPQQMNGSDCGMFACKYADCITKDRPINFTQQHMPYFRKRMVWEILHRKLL
# [10] = molecular target: T2, Sentrin-specific protease 1; assay: SENP1 catalytic domain blockers, concentration series – biochemical, kinetic FRET, dose response (AID 651697); assay type: functional; conditions: read-out: IC50_Mean
# [11] = molecular target: Paired box protein Pax-8 (Homo sapiens, UniProt Q06710); assay: PAX8 transcriptional activity inhibition in RMG-I – RMG-I cells, luciferase, cherry-pick, dose response (AID 687027); assay type: functional, cell-based;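 further: luciferase reporter driven by Pax8 target thyroperoxidase promoter measured by SteadyGlo luminescence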
# [12] = molecular target: Dual specificity tyrosine-phosphorylation-regulated kinase 1A (Rattus norvegicus, UniProt Q63470); assay type: biochemical, Homo sapiens
# [13] = molecular target: Melanocortin receptor 4 (Homo sapiens, UniProt P32245); assay: inhibitors of MC4R cAMP signaling – cell-based, TR-FRET, biased antagonists, dose response (AID 602298); assay type: functional;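 further: antagonist potency against agonist-stimulated cAMP production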
# [14] = viability loss in CEM21 cells – cell-based, CellTiter-Glo luminescence, cherry-picked, cytotoxicity control for viral fusion inhibitor project, dose response (AID 652042); assay type: functional;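 further: potency for signal decrease meaning cytotoxicity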
# [15] = molecular target: T3, Polyadenylate-binding protein 1 (Homo sapiens, UniProt P11940); assay: MLLE binding blockers, Cy5 peptide tracer – biochemical, fluorescence polarization, Cy5-PAM2 peptide, secondary, miRNA deadenylation inhibitor project, dose response (AID 602260); assay type: functional; conditions: read-out: IC50_Mean
# [16] = cAMP pathway inhibition in counterscreen cell line – TR-FRET cAMP detection, counter-screen for MC4R biased antagonist project, dose response (AID 602305); assay type: functional, cell-based;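 further: U2OS cells stimulated with forskolin near its EC80 as the cAMP inducer; potency is for inhibition of forskolin-stimulated cAMP signaling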
# [17] = blockers of HIV-1 ZM109 envelope-driven cell-cell fusion – HeLa effector, CEM target cells, luciferase, cherry-pick, dose response (AID 652058); assay type: functional, cell-based;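 further: luciferase signal from HIV-1 Env mediated cell-cell fusion of effector and target cells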
# [18] = off-target signal loss in HeLa-CEM21 co-culture – HeLa F-luc CTL cells, cherry-picked, counter-screen for HIV-1 Env fusion inhibitor project, dose response (AID 652040); assay type: functional, cell-based;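 further: potency for signal decrease marking cytotoxic or nonspecific inhibition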
# [19] = blockers of HIV-1 envelope-mediated cell-cell fusion – cherry-pick, dose response (AID 652057); assay type: functional, cell-based
# [20] = molecular target: T4, Sphingosine 1-phosphate receptor 4 (Homo sapiens, UniProt O95977); assay: Fluorescence dose response cell-based high throughput screening assay for antagonists of the Sphingosine 1-Phosphate Receptor 4 (S1P4). [Related pubchem assays: 1524 (Confirmation in triplicates.), 1510 (Primary screen.)]; assay type: functional
# T4 sequence (O95977 whole entry): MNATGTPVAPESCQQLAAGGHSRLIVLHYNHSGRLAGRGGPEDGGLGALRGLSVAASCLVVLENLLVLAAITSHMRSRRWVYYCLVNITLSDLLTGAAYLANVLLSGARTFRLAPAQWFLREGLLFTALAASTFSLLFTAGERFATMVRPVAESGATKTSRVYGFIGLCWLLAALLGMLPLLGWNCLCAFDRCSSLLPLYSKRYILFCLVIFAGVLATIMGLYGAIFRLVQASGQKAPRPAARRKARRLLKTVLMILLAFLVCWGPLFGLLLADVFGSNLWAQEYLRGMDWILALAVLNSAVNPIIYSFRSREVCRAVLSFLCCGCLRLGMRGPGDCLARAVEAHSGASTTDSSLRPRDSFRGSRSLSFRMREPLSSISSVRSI
# [21] = cells; assay type: functional, cell-based; conditions: HEK-CNG
# [22] = molecular target: Galanin receptor type 3 (Homo sapiens, UniProt O60755); assay: Fluorescence-based cell-based primary high throughput dose response assay to identify antagonists of the Galanin Receptor 3 (GalR3).; assay type: functional
# [23] = molecular target: Sphingosine 1-phosphate receptor 1 (Homo sapiens, UniProt P21453); assay type: functional;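 further: Tango beta-arrestin reporter U2OS cells stimulated with S1P near its EC80; inhibitor potency meaning antagonism of receptor activation by the natural agonist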
# [24] = HIV-1 AD8 envelope cell-cell fusion blockers – cherry-pick, dose response (AID 652062); assay type: functional, cell-based;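 further: luciferase signal from cell-cell fusion driven by HIV-1 clade B AD8 Env; potency is for inhibitors of fusion seen as a drop in luminescence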
# [25] = molecular target: T3, Polyadenylate-binding protein 1; assay: MLLE domain peptide-binding blockers, IC50 – biochemical, fluorescence polarization, FITC-PAM2 peptide, dose response (AID 602259); assay type: functional; conditions: read-out: IC50_Mean
# [26] = molecular target: Fructose-bisphosphate aldolase (Mycobacterium tuberculosis, UniProt P9WQA3); assay: Fluorescence-based biochemical high throughput dose response assay for inhibitors of the fructose-bisphosphate aldolase (FBA) of M. tuberculosis.; assay type: functional
# [27] = molecular target: Long-chain-fatty-acid--AMP ligase FadD28 (Mycobacterium tuberculosis, UniProt P9WQ59); assay: Fluorescence polarization aasay to screen for inhibitors that compete for the binding of FadD28 to a bisubstrate Measured in Biochemical System Using Plate Reader - 2147-01_Inhibitor_Dose_CherryPick_Activity.; assay type: functional, Mycobacterium tuberculosis H37Rv
# [28] = cells
# [29] = intracellular Trypanosoma cruzi inhibitors in host cells – cell-based, plate reader, cherry-pick samples, set 3, dose response (AID 651818); assay type: functional;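 further: compounds incubated with infected cells for about four days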
# [30] = anti-trypanosomal activity in BESM host cells – imaging, CA-I/72 strain, bovine embryo skeletal muscle, dry powder, dose response (AID 651885); assay type: functional, cell-based
# [31] = T. cruzi growth inhibition in host cells, dose response, cell-based, plate reader, dry powder, set 2 (AID 652275); assay type: functional
# [32] = Luminescence Cell-Based Dose Response HTS to Identify Activators of Luciferase Translation or Activity in H4 […] Cells. [Related pubchem assays: 1829 (Project Summary), 1814 (Primary HTS)]; assay type: functional
# [33] = Luminescence Cell-Based Dose Confirmation HTS to Identify Activators of 5'UTR Stem-Loop Driven Alpha-Synuclein mRNA Translation in H4 Neuroglioblastoma Cells. [Related pubchem assays: 1829 (Project Summary), 1814 (Primary HTS)]; assay type: functional
# [34] = molecular target: T5, Probable nicotinate-nucleotide adenylyltransferase (Staphylococcus aureus (strain N315), UniProt P65502); assay type: functional, Staphylococcus aureus subsp. aureus N315; conditions: read-out: IC50_Mean;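 on IC50 Mean: confirmatory dose-response retesting of NadD inhibitor hits first found in an ultra-high-throughput screen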
# [35] = molecular target: T5, Probable nicotinate-nucleotide adenylyltransferase; assay type: functional, Staphylococcus aureus subsp. aureus N315
# [36] = system: H4; assay: Luminescence Cell-Based Dose Response HTS to Identify Activators of 5'UTR Stem-Loop Driven Prion Protein mRNA Translation in H4 Neuroglioblastoma Cells. [Related pubchem assays: 1829 (Project Summary), 1814 (Primary HTS)]; assay type: functional; conditions: Homo sapiens
compound,measurement,setting,value
O=C(NCCCn1ccnc1)C(=O)NCC1OCCN1S(=O)(=O)c1cc(F)ccc1F (stereo unspecified),IC50,[1],12.7 µM (active)
same,AC50,[2],84.5 µM (active)
same,EC50,[3],128 µM (active)
CC(C)C1Cc2ccccc2-c2[nH]c(=S)[nH]c(=O)c21 (stereo unspecified),IC50,[4],4.66 µM (active)
same,IC50,[5],> 39.8 µM (not active)
same,IC50,[6],4.87 µM (active)
COc1ccc(OCC(=O)Nc2ccc(N3CCOCC3)cc2)cc1,IC50,[7],> 80 µM (inactive)
Cc1ccc(C(=O)Nc2nnc(N=C(S)Nc3ccccc3)s2)cc1,IC50,[8],> 69.5 µM (inactive)
Nc1nc(N)c2sc3nc(C(F)(F)F)cc(C(F)(F)F)c3c2n1,IC50,[9],16.7 µM (active)
same,IC50,[10],30 µM (inactive)
NC(=S)c1cn([C@@H]2O[C@H](CO)[C@@H](O)[C@H]2O)c2ncnc(N)c12,AC50,[11],0.294 µM (active)
same,AC50,[12],0.158 µM (active)
same,IC50,[13],> 64.6 µM (inactive)
same,AC50,[14],0.344 µM (active)
same,IC50,[15],> 66 µM (inactive)
same,IC50,[16],> 64.6 µM (inactive)
same,AC50,[17],< 0.26 µM (active)
same,AC50,[18],< 0.26 µM (active)
same,AC50,[19],< 0.26 µM (active)
same,IC50,[20],0.42 µM (active)
same,EC50,[21],> 29.9 µM (inactive)
same,IC50,[22],1.01 µM (active)
same,IC50,[23],1.96 µM (active)
same,AC50,[24],< 0.26 µM (active)
same,IC50,[25],> 66 µM (inactive)
Cc1cccc(C)c1NC(=S)Nc1ccccc1C(=O)NCc1ccco1,IC50,[26],6.61 µM (active)
Cn1c(=O)c2cc(NC(=S)NC3CCCCC3)ccc2n1C/C=C/c1ccccc1,AC50,[27],> 100 µM (inactive)
CC(C)C1Cc2ccccc2-c2nc(S)nc(O)c21 (stereo unspecified),IC50,[28],> 138 µM (inactive)
Cc1ccc(-n2nc3c(SCCN4CCOCC4)nnc(C)c3c2C)cc1,IC50,[28],> 138 µM (inactive)
same,IC50,[6],12.8 µM (inactive)
COc1ccc(-c2ccc(-c3nc4ccc(C)cn4c3NC3CCCCC3)cc2OC)cc1,IC50,[7],77.5 µM (inactive)
COc1ccc(CNCc2ccc(OC)c3ccccc23)cc1,IC50,[26],> 10 µM (inactive)
C[C@@H]1CN([C@@H](C)CO)C(=O)c2cccc(NC(=O)c3ccncc3)c2O[C@H]1CN(C)CC1CCCCC1,AC50,[17],0.953 µM (active)
same,AC50,[19],0.4 µM (active)
same,AC50,[29],0.636 µM (active)
same,IC50,[30],0.74 µM (active)
same,AC50,[24],1.96 µM (active)
same,AC50,[31],0.182 µM (active)
CC(=O)Nc1cc(-c2ccc(N3CCN(C)CC3)cc2)cn2c(-c3ccccc3)cnc12,IC50,[9],12.2 µM (active)
same,IC50,[10],24.1 µM (inactive)
COc1ccc(/C=C2\SC(=O)N(CC(=O)Nc3cccc(C)c3)C2=O)cc1O,AC50,[27],1.47 µM (active)
Cc1ccc(Nc2nc(Nc3ccc(C)cc3)nc(SC3=NCCS3)n2)cc1,EC50,[32],> 120 µM (not active)
same,EC50,[33],> 120 µM (not active)
same,IC50,[34],53.6 µM (active)
same,IC50,[35],28.6 µM (active)
same,EC50,[36],17.6 µM (active)
